Assay results published in US10526326B2, “Crystalline form and acetic acid adducts of palbociclib” (RATIOPHARM GMBH, priority 2015, dated 2020).
Converted amounts (≈) assume the structure as drawn. Structures can show the parent of a compound that is named as a salt.

Columns and labels:
[1] = Dynamic vapor sorption measurement; format: physicochemical; details: for Diffractogram after DVS measurement versus initial: XRPD after humidity cycles
Experimental: Vapour sorption experiments were performed in the instrument SPSx-1 μ (Projekt Messtechnik, Ulm, Germany) at a temperature of 25° C., using the humidity cycles specified below: [table]

[2] = cited from earlier work
[3] = Solubility determination in aqueous solvents at 37° C.; format: physicochemical; details: for solubility at 60 min / solubility at 15 min: 37 °C, thermodynamic from solid
Experimental: Approximately 200 mg (exactly weighed) test substance was weighed into a glass vial, followed by addition of 2 mL solvent (water, 0.01M HCl, 20 mM NaOAc/HOAc pH 4.5, 50 mM KH2PO4 pH 6.8). A stirring bar was added, the vial was fixed in a block heater at 37° C. and the suspension was stirred with approximately 250 rpm. After 15 min and 1 hour samples were withdrawn, filtered through a 0.2 μm disposable filter, diluted with solvent and quantified by UHPLC/UV.

[4] = Solubility determination in organic solvents at room temperature; format: physicochemical; details: chloroform, 23 °C, organic solvent or mixture, thermodynamic from solid, 23° C. (room temperature)
Experimental: Solubilities in organic solvents (methanol, acetone, chloroform, DMSO) were determined similarly at room temperature with the difference that the suspensions were not stirred but treated with a vortex mixer for 20 s.

[5] = 25° C., humidity cycles 0-95% RH
[6] = 50 mM KH2PO4 buffer, pH 6.8, aqueous buffer, 50 mM KH2PO4 (pH 6.8)

Compound: CC(=O)O.CC(=O)c1c(C)c2cnc(Nc3ccc(N4CCNCC4)cn3)nc2n(C2CCCC2)c1=O [Palbociclib acetic acid adduct Form 1]
- Sample weight change after the DVS measurement [1, 5]: −0.5%
- Diffractogram after DVS measurement versus initial [1]: practically identical with the initial one

Compound: CC(=O)c1c(C)c2cnc(Nc3ccc(N4CCNCC4)cn3)nc2n(C2CCCC2)c1=O [Palbociclib in form of the free base, 6-acetyl-8-cyclopentyl-5-methyl-2-{[5-(1-piperazinyl)-2-pyridinyl]amino}pyrido[2,3-d]pyrimidin-7(8H)-one]
- Solubility under acidic conditions (in words) ([2]; at or below pH 4): good solubility
- Solubility in water (in words) [2]: practically insoluble

Compound: CC(=O)c1c(C)c2cnc(Nc3ccc(N4CCNCC4)cn3)nc2n(C2CCCC2)c1=O [Palbociclib in present crystalline Form, 6-acetyl-8-cyclopentyl-5-methyl-2-{[5-(1-piperazinyl)-2-pyridinyl]amino}pyrido[2,3-d]pyrimidin-7(8H)-one]
- solubility at 60 min ([3]; 0.01M HCl, pH 2, simulated gastric fluid): 4300 µg/mL (≈ 9.61 mM)
- solubility at 15 min ([3]; 20 mM NaOAc/HOAc buffer, pH 4.5, aqueous buffer, 20 mM NaOAc/HOAc (pH 4.5)): 16200 µg/mL (≈ 36.2 mM)
- solubility at 15 min [3, 6]: 100 µg/mL (≈ 0.223 mM)
- solubility at 60 min [3, 6]: 100 µg/mL (≈ 0.223 mM)
- Solubility in aqueous solvents compared with Form A (in words) ([3]; aqueous solvents): comparable to that of Form A
- solubility at 20 s [4]: 86100 µg/mL (≈ 192 mM)
- Maximum water uptake [1, 5]: 1.3%
- Sample weight change after the DVS measurement [1, 5]: −0.2%
- Diffractogram after DVS measurement versus initial [1]: practically identical with the initial one

Compound: CC(=O)c1c(C)c2cnc(Nc3ccc(N4CCNCC4)cn3)nc2n(C2CCCC2)c1=O [dihydrochloride]
- Solubility in water (in words) [2]: good water solubility

Compound: CC(=O)c1c(C)c2cnc(Nc3ccc(N4CCNCC4)cn3)nc2n(C2CCCC2)c1=O [hydrochloride]
- Solubility in water (in words) [2]: good water solubility
